In ChEMBL document CHEMBL1157942, “Bioactive diterpenes from the fruits of Detarium microcarpum” (2006):

test system: Cladosporium cucumerinum; assay: Antifungal activity against Cladosporium cucumerinum after 3 days; assay type: functional

Row | Compound | Activity
1 | C/C(=C/C(=O)O)CC[C@]1(C)[C@@H](C)CC[C@]2(C)[C@H]1CC[C@@H](O)[C@@]2(C)O | 10 µg
2 | CC1=CC(=O)C[C@H]2[C@](C)(CC/C(C)=C/C(=O)O)[C@@H](C)CC[C@]12C | >100 µg
3 | C/C(=C\C(=O)O)CC[C@@]1(C)[C@H]2CC[C@H]3O[C@@]3(C)[C@@]2(C)CC[C@@H]1C | 10 µg
4 | CC1=CC(=O)C[C@H]2[C@](C)(CC/C(C)=C/C(=O)O)[C@H](C)CC[C@@]12C | 100 µg
5 | C/C(=C\C(=O)O)CC[C@]1(C)[C@H](C)CC[C@]2(C)[C@H]1CC[C@H](O)[C@@]2(C)O | >100 µg
6 | C=C1CC[C@@H]2C(C)(C)CCC[C@@]2(C)[C@@H]1CC/C(C)=C/C(=O)O [COPALIC ACID] | >100 µg
7 | Clc1ccc(COC(Cn2ccnc2)c2ccc(Cl)cc2Cl)c(Cl)c1 (configuration not stated) [MICONAZOLE] | 1 µg
